The experiment addresses CDK4/cyclinD (Homo sapiens (Human), UniProt P11802). Kind of experiment: CDK4/CyclinD kinase enzymatic assay (Caliper LabChip). The experiment is classed as biochemical. Conditions: tested as HCl salts, 12-point dose response, at the Km for ATP, three hours. As to the method: Kinase enzymatic reactions were performed in 384-well microplates using a 12-channel Caliper LabChip instrument as a detection device. […] As substrate and product are separated, two peaks of fluorescence are observed. Change in the relative fluorescence intensity of the substrate and product peaks is the parameter measured, reflecting enzyme activity. In the presence of an inhibitor, the ratio between product and substrate is altered. The signal of the product decreases, while the signal of the substrate increases.
Potential inhibitor compounds (as HCl salts) were tested using 12-point dose response curves in […] at the Km for ATP. The IC50 of each compound was determined using GraphPad Prism.

Broadly, the IC50 is the concentration needed to halve the response being measured.

Chain of CDK4/cyclinD (P11802 whole entry, species assumed): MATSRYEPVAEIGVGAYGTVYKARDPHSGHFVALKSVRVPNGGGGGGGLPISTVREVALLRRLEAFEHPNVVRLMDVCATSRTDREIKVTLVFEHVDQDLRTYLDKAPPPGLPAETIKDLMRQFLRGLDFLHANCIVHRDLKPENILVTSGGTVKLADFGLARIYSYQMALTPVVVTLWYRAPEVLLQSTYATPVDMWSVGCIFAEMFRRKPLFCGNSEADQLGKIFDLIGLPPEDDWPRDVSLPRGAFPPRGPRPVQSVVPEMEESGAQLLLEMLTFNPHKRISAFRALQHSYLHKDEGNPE
Chain of CDK4/cyclinD (P24385 whole entry partner, species assumed): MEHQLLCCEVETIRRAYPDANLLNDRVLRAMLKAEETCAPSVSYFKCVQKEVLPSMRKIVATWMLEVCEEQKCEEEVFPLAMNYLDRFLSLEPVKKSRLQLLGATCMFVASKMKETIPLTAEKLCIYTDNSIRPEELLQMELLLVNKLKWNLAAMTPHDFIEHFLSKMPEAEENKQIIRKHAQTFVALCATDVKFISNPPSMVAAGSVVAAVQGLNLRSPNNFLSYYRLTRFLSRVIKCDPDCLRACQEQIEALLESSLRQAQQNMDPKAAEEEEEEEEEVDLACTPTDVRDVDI

As to `O=C1NCCn2c1cc1cnc(Nc3ccc(N4CCNCC4)cn3)nc12` [Compound 3], the IC50 was 1050 nM.

(Values after patent publication US10696682B2, “CDK inhibitors” (G1 Therapeutics, Inc., priority 2010, dated 2020).)
